According to patent publication US20170027941A1, “Bruton's Tyrosine Kinase Inhibitor Combinations and Uses Thereof” (Pharmacyclics LLC, priority 2015, published 2017):

Assays:
Assay type in all cases: cell-based
pAkt = assay: Western blot of pAkt in renal cancer cell lines
Excerpt: (§1) Whole cell lysates in 1× sample buffer (Invitrogen) were electrophoresed on a 4%-12% Bis-Tris gel. After transferring the proteins onto a PVDF membrane, the blot was probed by antibodies, and the signal was detected using the Odyssey imager (LI-COR Biosciences). Paired mouse and rabbit antibodies were used to probe the total protein, and the corresponding phosphorylated proteins. The effect of ibrutinib treatment, with and without EGF stimulation/induction, on various proteins was studied. A one-hour pre-treatment with ibrutinib and a 10-minute stimulation with EGF was conducted. […] As such, ibrutinib ameliorates the effect (i.e., the undesired effects) of mTOR inhibitor alone.
(§2) Cell lysates were prepared from RCC cells which were treated with different concentrations of pazopanib for overnight incubation. Antibodies that correlate to the proteins of interest were used for detection.

pEGFR = assay: Western blot of pEGFR in renal cancer cell lines; details: A498, 769-P, RENCA, ACHN; one-hour pre-treatment, 10-minute EGF stimulation
Excerpt: as §1

pERK = assay: Western blot of pERK in renal cancer cell lines; details: A498, 769-P, RENCA, ACHN; one-hour pre-treatment, 10-minute EGF stimulation
Excerpt: as §1, §2

| SMILES | pAkt (both pAkt T308 and pAkt S473) (pAkt; ACHN cell line, 24 h treatment, FIG. 8) | EGF-induced pEGFR (pEGFR) | pAkt (pAkt; A498, 769-P, RENCA, ACHN, one-hour pre-treatment, 10-minute EGF stimulation) | pERK (pERK) |
| --- | --- | --- | --- | --- |
| CO[C@H]1C[C@@H]2CC[C@@H](C)[C@@](O)(O2)C(=O)C(=O)N2CCCC[C@H]2C(=O)O[C@H]([C@H](C)C[C@@H]2CC[C@@H](OCCO)[C@H](OC)C2)CC(=O)[C@H](C)/C=C(\C)[C@@H](O)[C@@H](OC)C(=O)[C@H](C)C[C@H](C)/C=C/C=C/C=C/1C [everolimus] | induced up-regulation of pAkt |  |  |  |
| C=CC(=O)N1CCC[C@@H](n2nc(-c3ccc(Oc4ccccc4)cc3)c3c(N)ncnc32)C1 [ibrutinib, 1-((R)-3-(4-amino-3-(4-phenoxyphenyl)-1H-pyrazolo[3,4-d]pyrimidin-1-yl)piperidin-1-yl)prop-2-en-1-one] |  | inhibits EGF-induced pEGFR | limited impacts | limited impacts |
